Measured values as given in article PMC10283052, “Intranasal delivery of mitochondrial protein humanin rescues cell death and promotes mitochondrial function in Parkinson's disease” (Theranostics, 2023).

Assays:
SH-SY5Y cells [1] = experiment: Real-time qPCR of mitochondrial rRNA and humanin transcripts; assay type: cell-based, human
Description: (§1) For real-time qPCR, total RNA was extracted using TRIzol reagent (Thermo Fisher Scientific). cDNA was synthesized using a cDNA synthesis kit (Bioneer Corporation), according to the manufacturer's protocol. The mRNA levels were analyzed in a LightCycler 96 (Roche, Basel, Switzerland) using SYBR Green I master mix and SensiFAST™ SYBR® No-ROX Kit (Bioline, Paris, France). B2M (beta-2-microglobulin) gene expression was used to normalize gene expression data. The primer sequences used in this experiment are in Table S2.

SH-SY5Y cells [2] = experiment: Mitochondrial mass and network morphology, MitoTracker Green; assay type: cell-based, human; conditions: HN 20 μM, 24 h
Description: For staining, the cells were seeded on PDL-coated glass slides and treated as indicated above. The samples were fixed using methanol and permeabilized using 0.1% Triton X-100 in PBS. After blocking with 5% bovine serum albumin (BSA), the cells were incubated with the appropriate primary antibody [anti-HN (1:500, Cat no # RA19000, Neuromics, Edina, MN, USA), anti-TH (1:500, Cat no # P40101, Pel-Freez Biologicals, Rogers, AR, USA), anti-lectin (1:200, Cat no # L32482, Thermo Fisher Scientific), anti-α-SMA (1:500, Cat no # ab5694, Abcam, Cambridge, MA, USA), and anti-GFAP (1:200, Cat no # sc-33673, Santa Cruz, Santa Cruz, USA)]. After incubation, the samples were washed and incubated with Alexa Fluor 594- or 488-conjugated antibodies (Thermo Fisher Scientific). The nuclei were stained using Hoechst 33342 (Sigma-Aldrich) and mounted using an anti-fade solution (Thermo Fisher Scientific). Fluorescent images were captured at the Neuroscience Translational Research Solution Center (Busan, South Korea) using an LSM 700 confocal microscope (Zeiss, Jena, Germany). The mitochondrial network morphology was assessed using the FIJI/ImageJ software as described previously.

SH-SY5Y cells [3] = experiment: HN-induced intracellular humanin expression, western blot, SH-SY5Y; assay type: cell-based, human; conditions: HN treatment 24 h, several doses, basal humanin undetectable
Description: The SH-SY5Y human neuroblastoma cell line and PC12 rat pheochromocytoma cell line were purchased from the Korean Cell Line Bank (Seoul, South Korea). Undifferentiated SH-SY5Y cells were grown in Dulbecco's modified Eagle's medium nutrient mixture F-12 (DMEM/F12; Thermo Fisher Scientific) supplemented with 10% FBS and 1% P/S. Undifferentiated PC12 cells were grown in DMEM (Thermo Fisher Scientific) supplemented with 5% FBS, 5% horse serum, and 1% P/S on poly-D-lysine (PDL, Sigma-Aldrich) plates.
(§2) For HN treatment of cells, HN stock solution was first incubated at 37 ℃ with mild stirring for 0.5 h. The solution was then added to the culture medium to achieve a desirable final concentration as described above.
Mouse brain tissue samples and cells were homogenized in radioimmunoprecipitation assay (RIPA) buffer (Cell Signaling, Danvers, MA, USA) in the presence of a protease and phosphatase inhibitor cocktail (Thermo Fisher Scientific). The samples were sonicated on ice, and the supernatant was collected after centrifugation at 4°C at 10,000 g for 5 min. The protein samples were loaded and separated using Tris-glycine SDS-PAGE. To detect the HN peptide, the proteins were separated into three layers of tricine SDS-PAGE, as previously described. […] The results were analyzed using the ImageJ densitometry system. […]

SH-SY5Y cells [4] = experiment: Mitochondrial membrane potential (TMRM) and mitochondrial ROS (MitoSOX); assay type: cell-based, human
Description: The SH-SY5Y cells were cultured in 96-well plates for 24 h before treatment. At the indicated time points, the cellular medium was removed, and the cells were washed with PBS. Mitochondrial ROS levels were measured using MitoSOX Red (Thermo Fisher Scientific) as described previously. The cells were counterstained using Hoechst 33342 (Sigma-Aldrich). Fluorescence intensity was quantified using a Synergy H1 multimode microplate reader (BioTek, Winooski, VT, USA) according to the manufacturer's protocol.
The cells were seeded in 96-well plates and treated as described above. To analyze the mitochondrial membrane potential, TMRM (Thermo Fisher Scientific) was used according to the manufacturer's instructions. The cells were counterstained using Hoechst 33342 (Sigma-Aldrich). Fluorescence intensity was assessed using a Synergy H1 multimode microplate reader or an LSR Fortessa cytometer at the Neuroscience Translational Research Solution Center.

SH-SY5Y cells [5] = experiment: Real-time qPCR of genes of mitochondrial function; assay type: cell-based, human; conditions: HN 20 μM, 24 h
Description: as §1

[6] = tested on: midbrain dopaminergic neurons from embryonic mouse; experiment: HN-induced intracellular humanin expression, western blot, primary neurons; assay type: cell-based; conditions: HN treatment 24 h (1 μM in Fig 2A), basal humanin undetectable
Description: Primary mesencephalic cell cultures were prepared using gestational day 13.5 embryos from C57BL/6J mice, as previously described. The mesencephalon was dissected from the embryos and dissociated in a medium containing 0.25% trypsin-EDTA and 0.05% DNase in PBS for 15 min at 37 °C. Tissue samples were mechanically dissociated by gentle pipetting using Pasteur pipettes. After centrifugation at 400 x g for 5 min, the cells were plated in Neurobasal-A medium (Thermo Fisher Scientific, Waltham, MA, USA) supplemented with 2% B27 supplement (Thermo Fisher Scientific), 1× Glutamax (Thermo Fisher Scientific), 5% fetal bovine serum (FBS), 0.36% D-glucose, and 1% Penicillin/Streptomycin (P/S) in poly-L-ornithine/laminin (Sigma-Aldrich)-coated plates. On day 4 in vitro (DIV), the plating medium was replaced, and the neurons were used on DIV 8 for subsequent experiments.
as §2
Mouse brain tissue samples and cells were homogenized in radioimmunoprecipitation assay (RIPA) buffer (Cell Signaling, Danvers, MA, USA) in the presence of a protease and phosphatase inhibitor cocktail (Thermo Fisher Scientific). […] The results were analyzed using the ImageJ densitometry system. […]

How did the “transcript levels of regions across mitochondrial rRNA and humanin” value (SH-SY5Y cells [1]; up to 24 h after HN treatment, slightly declined over time) turn out when “humanin (MAPRGFSCLLLLTSEIDLPVKRRA; Humanin; UniProt Q8IVG9 1-24, looked up) [HN, mitochondria-derived peptide encoded by the mitochondrial genome, synthesized by Fmoc-based SPPS at GL Biochem]” was run?
Its value is “significantly upregulated up to 24 h”.

What about the “transcript levels of regions across mitochondrial rRNA and humanin” value (SH-SY5Y cells [1]; within 3 h of HN treatment) of the same substance?
Its value is “significant upregulation”.

What about the mitochondrial branch length (SH-SY5Y cells [2]; versus DMSO) of the same substance?
The mitochondrial branch length was “longer rods and branches of mitochondria”.

And the mitochondrial volume (SH-SY5Y cells [2]; versus DMSO)?
The mitochondrial volume was “increase in mitochondrial volume”.

What about the “number of branches per mitochondrial network” value (SH-SY5Y cells [2]; versus DMSO) of the same substance?
Its value is “increase”.

And the mitochondrial mass (SH-SY5Y cells [2]; MitoTracker Green)?
Its mitochondrial mass is “increased mitochondrial mass”.

What about the intracellular humanin expression (SH-SY5Y cells [3]) of the same substance?
The intracellular humanin expression was “induced its intracellular expression in a dose-dependent manner”.

What about the FCCP-induced mitochondrial depolarization (SH-SY5Y cells [4]; HN pre-treatment 24 h, 20 μM, FCCP 5 μM, 15 min, flow cytometry) of the same substance?
Its FCCP-induced mitochondrial depolarization is “effective in restoring”.

And the “mitochondrial membrane potential (TMRM)” value (SH-SY5Y cells [4]; HN pre-treatment before MPP+, flow cytometry, normalized to Hoechst 33342)?
The value was “effectively inhibited reduction in mitochondrial potential”.

What about the “mitochondrial ROS production (MitoSOX)” value (SH-SY5Y cells [4]; HN pre-treatment before MPP+, normalized to Hoechst 33342) of the same substance?
Its value is “effectively inhibited”.

What about the “transcript levels of mitochondrial biogenesis (PGC-1α, NRF1, ESRRA) and oxidative phosphorylation (SDHA, ATP5F1A, ATP5F1D) genes” value (SH-SY5Y cells [5]) of the same substance?
The value was “significant increase”.

What about the “expression of fatty acid metabolism and TCA cycle genes” value (SH-SY5Y cells [5]; ACC2, ACLY, FASN, IDH3A) of the same substance?
The value was “a significant alteration was not observed”.

What about the intracellular humanin expression [6] of the same substance?
The intracellular humanin expression was “induced its intracellular expression in a dose-dependent manner”.
